Results taken from PMC3057164, “Caffeoylquinic Acids Are Major Constituents with Potent Anti-Influenza Effects in Brazilian Green Propolis Water Extract” (Evidence-based Complementary and Alternative Medicine : eCAM, 2011).
Like-named read-outs stand apart in the source and are kept apart here.

Experiments:
[1] = test system: influenza A virus strain A/WSN/33 (H1N1); assay: microbe, parasite or virus in culture; format: cell-based; details: for EC50: Influenza A virus, MDCK, 48 h
[2] = test system: MDCK cells; assay: Cytotoxicity assay (WST-8) with no viral infection; details: 300 μg/mL, uninfected MDCK cells, Figure 3
[3] = test system: influenza virus; format: cell-based; details: 5 μg/mL, influenza virus-infected MDCK cells, data not shown

| SMILES | Effect on cell survival rate of virus-infected cells (effective / ineffective) [1] | EC50 [1] | also measured |
| --- | --- | --- | --- |
| O=C(/C=C/c1ccc(O)c(O)c1)O[C@@H]1C[C@](O)(C(=O)O)C[C@@H](O)[C@H]1O [Chlorogenic acid] | effective | 342 µM | Cell survival rate of infected cells at 300 μg/mL [1]: dropped to nearly zero; Effect on cell survival of infected cells at 100 μg/mL [1]: effective; Cell toxicity [2]: exhibited cell toxicities |
| O=C(O)/C=C/c1ccc(O)cc1 [p-coumaric acid] | did not have any cell surviving activity |  |  |
| O=C(/C=C/c1ccc(O)c(O)c1)O[C@H]1[C@H](O)C[C@](O)(C(=O)O)C[C@H]1OC(=O)/C=C/c1ccc(O)c(O)c1 [4,5-Dicaffeoylquinic acid, 4,5-dicaffeoylquinic acid] | effective | 281 µM |  |
| CC(C)=CCc1cc(/C=C/C(=O)O)ccc1O [drupanin] | did not have any cell surviving activity |  |  |
| O=C(/C=C/c1ccc(O)c(O)c1)O[C@@H]1[C@H](O)C[C@@](O)(C(=O)O)C[C@H]1OC(=O)/C=C/c1ccc(O)c(O)c1 [3,4-Dicaffeoylquinic acid] | effective | 81.1 ± 2.9 µM | EC50 ([1]; read-out: EC50 value on the cell survival): 41.9 µg/mL |
| O=C(/C=C/c1ccc(O)c(O)c1)O[C@@H]1C[C@](O)(C(=O)O)C[C@@H](OC(=O)/C=C/c2ccc(O)c(O)c2)[C@H]1OC(=O)/C=C/c1ccc(O)c(O)c1 [3,4,5-Tricaffeoylquinic acid, 3,4,5-tricaffeoylquinic acid] | effective | 115 µM | Cell survival rate of infected cells at 300 μg/mL [1]: dropped to nearly zero; Effect on cell survival of infected cells at 100 μg/mL [1]: effective |
| COc1ccc(-c2oc3cc(O)cc(O)c3c(=O)c2O)cc1 [kemferide] | did not have any cell surviving activity |  |  |
| O=C(/C=C/c1ccc(O)c(O)c1)O[C@@H]1C[C@](O)(C(=O)O)C[C@@H](OC(=O)/C=C/c2ccc(O)c(O)c2)[C@H]1O [3,5-Dicaffeoylquinic acid, 3,5-dicaffeoylquinic acid] | effective | 208 µM |  |
| O=C(O)[C@]1(O)C[C@@H](O)[C@@H](O)[C@H](O)C1 [Quinic acid, quinic acid] | ineffective | > 1560 µM |  |
| CC(C)=CCc1cc(/C=C/C(=O)O)cc(CC=C(C)C)c1O [artepillin C] | did not have any cell surviving activity |  |  |
| NC(=O)c1ncn([C@@H]2O[C@H](CO)[C@@H](O)[C@H]2O)n1 [ribavirin] |  |  | Quantity of mRNA for HA relative to mRNA for GAPDH [3]: less than 10% |
| O=C(O)/C=C/c1ccc(O)c(O)c1 [Caffeic acid, caffeic acid] | effective | 191 µM | Cell survival rate of infected cells at 300 μg/mL [1]: dropped to nearly zero; Effect on cell survival of infected cells at 100 μg/mL [1]: effective; Cell toxicity [2]: exhibited cell toxicities |
